Where a name gives a salt, the structure may show the parent alone. Read-outs that look alike come from different tables or passages of the source.
Target: TPK enzyme (Homo sapiens (Human), UniProt Q9H3S4)
Assay: TPK enzyme activity test
Type: biochemical
Conditions: for Emax: calculated with the effect of DMSO on TPK enzyme activity as 100%; for EC50: promoting effect on TPK enzyme activity

Sequence of TPK enzyme (Q9H3S4 whole entry): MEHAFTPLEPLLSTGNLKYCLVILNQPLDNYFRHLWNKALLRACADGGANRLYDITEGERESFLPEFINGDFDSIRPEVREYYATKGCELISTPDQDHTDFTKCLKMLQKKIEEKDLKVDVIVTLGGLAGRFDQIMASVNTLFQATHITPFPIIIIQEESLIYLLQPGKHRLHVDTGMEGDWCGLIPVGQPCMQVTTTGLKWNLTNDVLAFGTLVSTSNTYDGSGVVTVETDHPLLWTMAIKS

Emax (read-out: Emax) [%]	EC50 [nM]	Emax [%]	Compound
147	2140		Cc1ccc2[nH]c3c(=O)n(CCC(=O)N4CCN(c5ccc(S(=O)(=O)N6CCCCC6)cc5)CC4)cnc3c2c1 [Compound 169, 8-methyl-3-(3-oxo-3-(4-(4-(piperidin-1-ylsulfonyl)phenyl)piperazin-1-yl)propyl)-3,5-dihydro-4H-pyri mid[5,4-b]indol-4-one]
136			Cc1ccc2[nH]c3c(=O)n(CCCN4CCN(c5cccc(C(F)(F)F)c5)CC4)cnc3c2c1 [Compound 49, 8-methyl-3-(3-(4-(3-(trifluoromethyl)phenyl)piperazin-1-yl)propyl)-3,5-dihydro-4H-pyrimido[5,4-b]indol-4-one]
		122.50	Cc1ccc2[nH]c3c(=O)n(CCC(=O)N4CCN(c5ccc(F)cc5)CC4)cnc3c2c1 [Compound 46]
122			CC(C)c1ccc(CNC(=O)CCn2cnc3c([nH]c4ccc(F)cc43)c2=O)cc1 [Compound 118]
122			Cc1ccc2[nH]c3c(=O)n(CCC(=O)N4CCN(c5cccc(C(=O)O)c5)CC4)cnc3c2c1 [Compound 27, 3-(4-(3-(8-methyl-4-oxo-4,5-dihydro-3H-pyrimido[5,4-b]indol-3-yl)propanoyl)piperazin-1-yl)benzoic Acid]
124			Cc1ccc2[nH]c3c(=O)n(CCC(=O)N4CCN(c5cccc(C(N)=O)c5)CC4)cnc3c2c1 [Compound 28, 3-(4-(3-(8-methyl-4-oxo-4,5-dihydro-3H-pyrimido[5,4-b]indol-3-yl)propanoyl)piperazin-1-yl)benzamide]
178	7490		O=C1CCCCN1CCCCCCN1CCSc2ccc(C(F)(F)F)cc21 [Compound 193, 1-(6-(6-(trifluoromethyl)-2,3-dihydro-4H-benzo[b][1,4]thiazin-4-yl)hexyl)piperidin-2-one]
195	1280		Cc1ccc2[nH]c3c(=O)n(CCCN4CCN(c5cccc(Cl)c5Cl)CC4)cnc3c2c1 [Diformate salt of 52, 3-(3-(4-(2,3-dichlorophenyl)piperazin-1-yl)propyl)-8-methyl-3,5-dihydro-4H-pyrimido[5,4-b]indol-4-one]
145	2000		Cc1ccc2c(c1)[nH]c1c(=O)n(CCC(=O)N3CCN(c4ccc(Cl)c(Cl)c4)CC3)cnc12 [Compound 19, 3-(3-(4-(3,4-dichlorophenyl)piperazin-1-yl)-3-oxopropyl)-7-methyl-3,5-dihydro-4H-pyrimido[5,4-b]indol-4-one]
	930		Cc1ccc2c(c1)-c1ncn(CCC(=O)N3CCC(Cc4ccc(F)cc4)CC3)c(=O)c1CC2 [Compound 225, 3-(3-(4-(4-fluorobenzyl)piperidin-1-yl)-3-oxopropyl)-9-methyl-5,6-dihydrobenzo[h]quinazolin-4(3H)-one]
159	1190		Cc1ccc2oc3c(=O)n(CCC(=O)N4CCN(c5cccc(C(F)(F)F)c5)CC4)cnc3c2c1 [Compound 57, 8-methyl-3-(3-oxo-3-(4-(3-(trifluoromethyl)phenyl)piperazin-1-yl)propyl)benzofuro[3,2-d]pyrimidin-4(3H)-one]
144	2600		O=C(CCn1cnc2c([nH]c3ccc(F)cc32)c1=O)N1CCC(Cc2ccc(F)cc2)CC1 [Compound 154, 8-fluoro-3-(3-(4-(4-fluorobenzyl)piperidin-1-yl)-3-oxopropyl)-3,5-dihydro-4H-pyrimido[5,4-b]indol-4-one]
171	1990		O=C(CCn1cnc2c(oc3ccc(F)cc32)c1=O)N1CCC(Cc2ccc(F)cc2)CC1 [Compound 150, 8-fluoro-3-(3-(4-(4-fluorobenzyl)piperidin-1-yl)-3-oxopropyl)benzofuro[3,2-d]pyrimidin-4(3H)-one]
123			Cc1ccc2[nH]c3c(=O)n(CCC(=O)NCc4cccc(O)c4)cnc3c2c1 [Compound 82, N-(3-hydroxybenzyl)-3-(8-methyl-4-oxo-4,5-dihydro-3H-pyrimido[5,4-b]indol-3-yl)propanamide]
147	768		Cc1ccc2[nH]c3c(=O)n(CCC(=O)N4CCN(c5ccc(Cl)c(Cl)c5)CC4)cnc3c2c1 [Compound 9, 3-(3-(4-(3,4-dichlorophenyl)piperazin-1-yl)-3-oxopropyl)-8-methyl-3,5-dihydro-4H-pyrimido[5,4-b]indol-4-one]
125			Cc1ccc2[nH]c3c(=O)n(CCC(=O)NCc4cn5ccccc5n4)cnc3c2c1 [Compound 134, N-(imidazo[1,2-a]pyridin-2-ylmethyl)-3-(8-methyl-4-oxo-4,5-dihydro-3H-pyrimido[5,4-b]indol-3-yl)propanamide]
157	3890		Cc1ccc2c(c1)-c1nc(=O)n(CCCC(=O)N3CCC(Cc4ccc(F)cc4)CC3)cc1CO2 [Compound 220, 3-(4-(4-(4-fluorobenzyl)piperidin-1-yl)-4-oxobutyl)-9-methyl-3,5-dihydro-2H-chromeno[4,3-d]pyrimidin-2-one]
170	1680		O=C(CCn1cnc2c([nH]c3ccc(C(F)(F)F)cc32)c1=O)N1CCN(Cc2cc(F)c(F)c(F)c2)CC1 [Compound 54, 3-(3-oxo-3-(4-(3,4,5-trifluorobenzyl)piperazin-1-yl)propyl)-8-(trifluoromethyl)-3,5-dihydro-4H-pyrimido[5,4-b]indol-4-one]
141			Cc1ccc2[nH]c3c(=O)n(CC(=O)N4CCN(c5cccc(C(F)(F)F)c5)CC4)cnc3c2c1 [Compound 41]

Emax (read-out: Emax) [%]	EC50 [nM]	Emax [%]	Compound
157	1150		Cc1ccc2[nH]c3c(=O)n(CCC(=O)N4CCN(c5ccc(C(F)(F)F)cc5)CC4)cnc3c2c1 [Compound 10, 8-methyl-3-(3-oxo-3-(4-(4-(trifluoromethyl)phenyl)piperazin-1-yl)propyl)-3,5-dihydro-4H-pyrimido[5,4-b]indol-4-one]
132			O=C1c2ccccc2CN1CCCN1CCSc2ccc(C(F)(F)F)cc21 [Compound 197, 2-(3-(6-(trifluoromethyl)-2,3-dihydro-4H-benzo[b][1,4]thiazin-4-yl)propyl)isoindolin-1-one]
178	1010		Cc1ccc2[nH]c3c(=O)n(CCC(=O)NCc4cccc(C(F)(F)F)c4)cnc3c2c1 [Compound 97]
	1810	136	Cc1ccc2c(c1)N1CCCC(C(=O)NCCCN3CCN(c4cccc(C(F)(F)F)c4)CC3)C1CO2 (centres unmarked) [Formate salt of 232, 2-methyl-N-(3-(4-(3-trifluoromethylphenyl)piperazin-1-yl)propyl)-6,6a,7,8,9,10-hexahydrobenzo[b]pyrido[1,2-d][1,4]oxazine-7-carboxamide Formate]
124			Cc1ccc2c(c1)[nH]c1c(=O)n(CCC(=O)N3CCN(c4cccc(Cl)c4Cl)CC3)cnc12 [Compound 13, 3-(3-(4-(2,3-dichlorophenyl)piperazin-1-yl)-3-oxopropyl)-7-methyl-3,5-dihydro-4H-pyrimido[5,4-b]indol-4-one]
151	1990		O=C(CCn1cnc2c(oc3ccc(F)cc32)c1=O)N1CCN(c2cccc(C(F)(F)F)c2)CC1 [Compound 148, 8-fluoro-3-(3-oxo-3-(4-(3-(trifluoromethyl)phenyl)piperazin-1-yl)propyl)benzofuro[3,2-d]pyrimidin-4 (3H)-one]
198	950		COc1ccc2c(c1)N1CCN(c3ccccc3OC)CC1C(C(=O)NCCN1CCCCC1)C2 (centres unmarked) [Compound 139]
180	1200		O=C1c2ccccc2CN1CCCN1c2ccccc2Sc2ccccc21 [Compound 189, 2-(3-(10H-phenothiazin-10-yl)propyl)isoindolin-1-one]
119	495		Cc1ccc2[nH]c3c(=O)n(CCC(=O)N4CCC(N(C)c5cccc(Cl)c5Cl)CC4)cnc3c2c1 [Compound 166, 3-(3-(4-((2,3-dichlorophenyl)(methyl)amino)piperidin-1-yl)-3-oxopropyl)-8-methyl-3,5-dihydro-4H-pyrimido[5,4-b]indol-4-one]
189	5980		O=C(CCn1cnc2c(oc3ccc(F)cc32)c1=O)N1CCC(O)(c2cccc(C(F)(F)F)c2)CC1 [Compound 151, 8-fluoro-3-(3-(4-hydroxy-4-(3-(trifluoromethyl)phenyl)piperidin-1-yl)-3-oxopropyl)benzofuro[3,2-d]pyrimidin-4(3H)-one]
	2320		Cc1ccc2[nH]c3c(=O)n(CCC(=O)N4CCC(Cc5ccc(F)cc5)CC4)cnc3c2c1 [Compound 164]
148			Cc1ccc2[nH]c3c(=O)n(CC(=O)N4CCN(c5ccc(F)cc5)CC4)cnc3c2c1 [Compound 63]
135			COc1ccccc1N1CCN(C(=O)CCn2cnc3c([nH]c4ccc(C)cc43)c2=O)CC1 [Compound 47]
137	572		COc1ccc2[nH]c(=O)c3c(c2c1)CN(CCCN1CCN(c2cccc(Cl)c2Cl)CC1)C3 [Compound 235, 2-(3-(4-(2,3-dichlorophenyl)piperazin-1-yl)propyl)-8-methoxy-1,2,3,5-tetrahydro-4H-pyrrolo[3,4-c]quinolin-4-one]
164	1110		O=C1Cc2ccc(OCCCN3c4ccccc4Sc4ccccc43)cc2N1 [Compound 190, 6-(3-(10H-phenothiazin-10-yl)propoxy)indoline-2-one]
152	3300		Cc1ccc2[nH]c3c(=O)n(CCC(=O)N4CCN(c5cccc(C)c5C)CC4)cnc3c2c1 [Compound 44]
142			O=C(CCn1cnc2c([nH]c3ccc(C(F)(F)F)cc32)c1=O)NCc1cccc(C(F)(F)F)c1 [Compound 71, 3-(4-oxo-8-(trifluoromethyl)-4,5-dihydro-3H-pyrimido[5,4-b]indol-3-yl)-N-(3-(trifluoromethyl)benzyl)propanamide]
180	1080		Cc1cccc2[nH]c3c(=O)n(CCC(=O)N4CCN(c5cccc(C(F)(F)F)c5)CC4)cnc3c12 [Compound 11, 9-methyl-3-(3-oxo-3-(4-(3-(trifluoromethyl)phenyl)piperazin-1-yl)propyl)-3,5-dihydro-4H-pyrimido[5,4-b]indol-4-one]
